# Assay results published in patent US5366982A (priority 1990, dated 1994).
# Like-named read-outs stand apart in the source and are kept apart here.
# What was measured:
# leukotriene B4 receptors = leukotriene B4 receptors (Cavia porcellus, UniProt H0VYV8); assay: biochemical; assay type: binding, guinea-pig; conditions: Table XIX; guinea-pig spleen membranes, tritium-labelled LTB4; read-out: IC50 Binding (Cheng)
# [1] = system: guinea-pig pulmonary parenchyma; assay: L. Parenchyma: guinea-pig pulmonary parenchyma contraction antagonism induced by LTB4 (Sirois); assay type: cell-based; conditions: Table XIX, guinea-pig pulmonary parenchyma contraction induced by LTB4, read-out: IC50 L. Parenchyma
# Experimental: Further, compounds of this invention are shown to be leukotriene B4 antagonists in the technique of guinea-pig pulmonary parenchyma contraction antagonism induced by LTB4 described by P. Sirois et al., Pharmacology, 31, 225-236 (1985). In this technique, products are active at concentrations of between about 1 to about 10,000 nM.
# leukotriene B4 receptors, sequence (H0VYV8 1-348): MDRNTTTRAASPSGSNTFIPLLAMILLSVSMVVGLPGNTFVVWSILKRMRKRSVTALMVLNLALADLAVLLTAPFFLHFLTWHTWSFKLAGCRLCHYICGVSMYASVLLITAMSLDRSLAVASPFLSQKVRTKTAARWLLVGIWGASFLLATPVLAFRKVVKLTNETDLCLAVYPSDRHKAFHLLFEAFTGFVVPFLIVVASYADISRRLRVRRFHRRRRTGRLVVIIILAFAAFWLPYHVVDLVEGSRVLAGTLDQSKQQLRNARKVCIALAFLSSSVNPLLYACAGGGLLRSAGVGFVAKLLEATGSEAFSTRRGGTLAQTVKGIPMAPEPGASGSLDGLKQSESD
Compound,IC50 (leukotriene B4 receptors),IC50 ([1]; Cavia porcellus),IC50 [1]
COc1ccc(-c2cc(OCCCCCC(=O)O)nc(-c3ccc(Cl)cc3)c2)cc1 [6-{[6-(4-chlorophenyl)-4-(4-methoxyphenyl)-2-pyridyl]oxy}hexanoic acid],1200 nM,> 10000 nM,–
"COc1cccc(-c2cc(OCCCCC(C)(C)C(=O)O)nc(-c3ccccc3)c2)c1 [2,2-dimethyl-6-{[4-(3-methoxyphenyl)-6-phenyl-2-pyridyl]oxy}hexanoic acid]",2 nM,30 nM,–
"CC(C)(CCCCOc1cc(-c2ccc(N)cc2)cc(-c2ccccc2)n1)C(=O)O [2,2-dimethyl-6-{[4-(4-aminophenyl)-6-phenyl-2-pyridyl]oxy}hexanoic acid]",10 nM,1 nM,–
O=C(O)CCCCCOc1cc(-c2ccccc2)cc(-c2ccsc2)n1 [6-{[4-phenyl-6-(3-thienyl)-2-pyridyl]oxy}hexanoic acid],10 nM,1000 nM,–
"CC(C)(CCCCOc1nc(-c2ccccc2)cc(-c2ccccc2)n1)C(=O)O [6-[(4,6-diphenyl-2-pyrimidyl)oxy]-2,2-dimethylhexanoic acid]",10 nM,1000 nM,–
Cc1ccc(-c2cc(OCCCCCC(=O)O)nc(-c3ccccc3)c2)cc1 [6-{[4-(4-methylphenyl)-6-phenyl-2-pyridyl]oxy}hexanoic acid],15 nM,100 nM,–
"O=C(O)CCCCOc1cc(-c2ccccc2)cc(-c2ccccc2)n1 [5-[(4,6-diphenyl-2-pyridyl)oxy]pentanoic acid]",50 nM,2000 nM,–
"O=C(O)CCCCCOc1cc(-c2ccc3c(c2)OCO3)cc(-c2ccccc2)n1 [6-{[4-(3,4-methylenedioxyphenyl)-6-phenyl-2-pyridyl]oxy}hexanoic acid]",1 nM,5 nM,–
"CC(C)(CCCCOc1cc(-c2ccccc2)cc(-c2ccccc2)n1)c1nnn[nH]1 [5-{1,1-dimethyl-5-[(4,6-diphenyl-2-pyridyl)oxy]pentyl}-[1H]-tetrazole]",7 nM,20 nM,–
CC(CCCCOc1cc(-c2ccc(F)cc2)cc(-c2ccccc2)n1)C(=O)O (stereo not shown) [2-methyl-6-{[4-(4-fluorophenyl)-6-phenyl-2-pyridyl]oxy}hexanoic acid],1.7 nM,60 nM,–
"CC(C)(CCCCOc1cc(-c2ccccc2)cc(-c2ccccc2F)n1)C(=O)O [2,2-dimethyl-6-{[6-(2-fluorophenyl)-4-phenyl-2-pyridyl]oxy}hexanoic acid]",5 nM,80 nM,–
"6-[(6-cyclopropyl-5-phenyl-2-pyridyl)oxy]-2,2-dimethylhexanoic acid",4 nM,–,200 nM
"CC(CCCCOc1cc(-c2ccc3c(c2)OCO3)cc(-c2ccccc2)n1)C(=O)O (stereo not shown) [2-methyl-6-{[4-(3,4-methylenedioxyphenyl)-6-phenyl-2-pyridyl]oxy}hexanoic acid]",7 nM,2.5 nM,–
CSc1ccc(-c2cc(OCCCCCC(=O)O)nc(-c3ccccc3)c2)cc1 [6-{[4-(4-methylthiophenyl)-6-phenyl-2-pyridyl]oxy}hexanoic acid],10 nM,3000 nM,–
